Data set [1] has as its target T1, Aβ(1-40) (Homo sapiens, UniProt P05067).
T1 construct: […]; purchased Bachem, Torrance, Calif
The data set can be described thus: BASST (Beta-Amyloid Self-Seeding, Thioflavin T), inhibitors of self-seeded amyloid fibril growth. In kind it is biochemical. To be noted: 30 μM soluble Aβ(1-40), 37° C., 3 to 5 hours, thioflavin T fluorescence; replicate values; letter = synthetic lot; read-out: BASST (IC50 = μM). Summed up:
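Self-seeded Aβ(1-40) fibril growth was run in 50 mM sodium phosphate pH 7.5, 100 mM NaCl, 0.02% NaN3, 1 M urea. Compounds were tested in 3-fold serial dilutions (top 100 μM final): 10 min on ice, then 3–5 h at 37 °C. Fibrils were read by 5 μM thioflavin T fluorescence (ex 440/em 485 nm).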

In another data set the target is T2, Aβ (1-40) peptide (Homo sapiens, UniProt P05067).
T2 construct: 10 μL 0.5 mg/mL Aβ (1-40) peptide in 20% HFIP
The data set is described as follows: BAPA (Beta-Amyloid Peptide Aggregation, pH 6.0, filtration). In kind it is biochemical. To be noted: Aβ (1-40) 33 μM, pH 6.0, 2 to 4 hours at room temperature; replicate values; letter = synthetic lot. A digest of the protocol: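 Aggregation of human Aβ (1-40) peptide was measured in an endpoint filtration assay. The peptide was first reduced to monomer with hexafluoroisopropanol (HFIP), then used at 33 μM so it would aggregate at pH 6.0, and incubated for 2 to 4 hours at room temperature. Filter plates were washed with 100 μL phosphate buffer, impregnated with Meltilex, and counted on a Microbeta counter with background correction.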

The next data set concerns the target T3, Aβ (1-42) (Homo sapiens, UniProt P05067).
T3 construct: Required Aβ (1-42) (California Peptide) was dried from its hexafluoroisopropanol (HFIP) stock solution; purchased California Peptide
The data set can be described thus: BATYM assay (Aβ (1-42) aggregation, Thioflavin T fluorescence). To be noted: Aβ 1-42 final concentration 100 μM, 37° C., 1 day, letter = synthetic lot. Format: biochemical. Summed up:
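Aβ (1-42) (100 μM final, PBS pH 7.4 from DMSO) incubated with compound at 37° C. for 1 day. Aggregation read by ThT (30 μM, glycine-NaOH pH 8.5) fluorescence, ex 440/em 485 nm; inhibition as fluorescence reduction corrected for compound-alone signal, IC50 by curve fitting from two experiments in triplicate.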

The target of data set [2] is T1, Aβ(1-40). The data set is described as follows: BASSR (Beta-Amyloid Self-Seeding Radioassay), inhibitors of self-seeded amyloid fibril growth. In kind it is biochemical. As to conditions: 30 μM soluble Aβ(1-40) + 125I-labeled Aβ(1-40), 37° C., 3 to 5 hours; replicate values; letter = synthetic lot; ppt = precipitate; V-shaped = inhibition followed by precipitation. A digest of the protocol: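 Self-seeded growth of ^125I-labeled Aβ(1-40) fibrils in 50 mM sodium phosphate pH 7.5, 100 mM NaCl, 0.02% NaN3, 1 M urea; compound (3-fold dilutions from 100 μM final) preincubated 10 min on ice, then 3–5 h at 37° C. Fibrils collected by vacuum filtration on 0.2 μm filters and counted for radioactivity.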

Several values for one entry are separate records, joined by “and”; a condition that tells them apart may be missing. Equal entries are not always repeated.

T3 sequence (P05067 672-713 limits assumed): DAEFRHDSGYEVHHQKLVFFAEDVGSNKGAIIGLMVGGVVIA
T1 sequence (P05067 672-711 limits assumed): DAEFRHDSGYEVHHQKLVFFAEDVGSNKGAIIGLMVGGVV
T2 sequence (P05067 672-711 limits assumed): as above

One may read the IC50 as the midpoint of a concentration-inhibition curve. Usually melting point stands for the temperature, or range, at which the solid turns liquid. Regarding `Cc1ccc(CCc2ccc(Nc3ccc([N+](=O)[O-])cc3C(=O)O)cc2)cc1C` [Example 16, 2-{4-[2-(3,4-Dimethyl-phenyl)-ethyl]phenylamino}-5-nitrobenzoic acid], the melting point is 214 to 216 °C. The IC50 on Aβ(1-40) [1] was 3 µM (2×) and 1.1 µM and 800 nM and 600 nM. The compound further showed a half-maximal inhibitory concentration (IC50) against Aβ (1-40) peptide of 13 µM. Also, on Aβ (1-42), the IC50 is 12 µM and 10.3 µM.

As to `CC(=O)Nc1ccc(CCc2ccc(Nc3ccccc3C(=O)O)cc2)cc1` [Example 35, 2-{4-[2-(4-Acetylaminophenyl)ethyl]phenylamino}benzoic acid], the melting point stood at 224 °C. The half-inhibitory concentration (IC50) at Aβ(1-40) [2] is over 100 µM. Also, the concentration for half-maximal inhibition (IC50) against Aβ (1-40) peptide came to 154 µM. At Aβ (1-42), this compound gave a concentration for half-maximal inhibition (IC50) of over 100 µM.

For `O=C(O)c1ccccc1Nc1ccc(CCCc2ccc(-n3cccc3)cc2)cc1` [Example 46, 2-(4-{3-[4-(1H-Pyrrol-1-yl)phenyl]propyl}phenylamino)benzoic acid], the melting point was in the range of 131 to 136 °C. The IC50 on Aβ(1-40) [1] was 6 µM. Further, the IC50 on Aβ(1-40) [2] is over 100 µM. Moreover, 34.3 µM corresponded to half-maximal inhibition at Aβ (1-42) (IC50).

Take `CCN(CC)C(=O)c1ccc(CCCc2ccc(Nc3ccccc3C(=O)O)cc2)cc1` [Example 48, 2-{4-[3-(4-Diethylcarbamoylphenyl)propyl]phenylamino}benzoic acid]: the melting point was 57 to 62 °C. For the same compound, the concentration for half-maximal inhibition (IC50) on Aβ(1-40) [1] is 10 µM. In addition, on Aβ(1-40) [2], the concentration for half-maximal inhibition (IC50) is 25 µM. The compound further gave an IC50 against Aβ (1-42) of over 100 µM.

For the compound `O=C(O)c1ccc(CCCc2ccc(Nc3ccccc3C(=O)O)cc2)cc1` [Example 49, 2-{4-[3-(4-Carboxyphenyl)propyl]phenylamino}benzoic acid], the melting point was in the range of 236 to 239 °C. Besides, the IC50 at Aβ(1-40) [1] was over 100 µM. For the same compound, the IC50 at Aβ(1-40) [2] was over 100 µM. Also, at Aβ (1-42), the IC50 is over 100 µM.

Compound `CCN(CC)Cc1ccc(CCCc2ccc(Nc3ccccc3C(=O)O)cc2)cc1` [Example 50, 2-{4-[3-(4-Diethylaminomethylphenyl)propyl]phenylamino}benzoic acid] came in with a melting point of 137 °C. The 50% inhibitory concentration (IC50) on Aβ(1-40) [1] is over 100 µM. Moreover, the IC50 on Aβ(1-40) [2] is over 100 µM. The compound further yielded a half-inhibitory concentration (IC50) against Aβ (1-42) of over 100 µM.

`O=C(O)c1ccccc1Nc1ccc(CCCc2ccc(N3CCCC3)cc2)cc1` [Example 53, 2-{4-[3-(4-Pyrrolidin-1-yl-phenyl)-propyl]-phenylamino}-benzoic acid] displayed a melting point of 171 to 177 °C. The IC50 on Aβ(1-40) [1] was 0.3 µM. In addition, the IC50 at Aβ(1-40) [2] is over 100 µM. Moreover, half-maximal inhibition at Aβ (1-42) (IC50) required 30 µM.

In turn, `O=C(O)c1ccccc1Nc1ccc(CCCc2cccc(N3CCCCC3)c2)cc1` [Example 54, 2-{4-[3-(3-Piperidin-1yl-phenyl)-propyl]-phenylamino}-benzoic acid] returned a melting point of 59 to 61 °C. The IC50 at Aβ(1-40) [1] turned out to be 0.4 µM. For the same compound, the IC50 at Aβ(1-40) [2] was over 100 µM. On Aβ (1-42), this compound gave a 50% inhibitory concentration (IC50) of 43.9 µM.

`CCCCN1CCCc2cc(C=C3SC(=S)N(CCC(=O)O)C3=O)ccc21` [Example 57, 3-{5-[(1-Butyl-1,2,3,4-tetrahydroquinolin-6-yl)methylidene]-4-oxo-2-thioxo-thiazolidin-3-yl)propanoic acid] showed a melting point of 214 to 215 °C. For the same compound, on Aβ(1-40) [1], the half-inhibitory concentration (IC50) is 1.5 µM. For the same compound, the IC50 on Aβ(1-40) [2] was 4.8 µM. Half-maximal inhibition on Aβ (1-42) (IC50) was put at 4 µM.

Take `CCCCN1CCCc2cc(C=C3SC(=S)N(CCCC(=O)O)C3=O)ccc21` [Example 58, 4-{5-[(1-Butyl-1,2,3,4-tetrahydroquinolin-6-yl)methylidene]-4oxo-2-thioxo-thiazolidin-3-yl)butanoic acid]: the melting point lay in the range of 152 to 154 °C. The 50% inhibitory concentration (IC50) on Aβ(1-40) [1] is 1 µM. In addition, the 50% inhibitory concentration (IC50) on Aβ(1-40) [2] was 3.5 µM. Further, at Aβ (1-42), the midpoint of inhibition, the IC50, lay at 5.1 µM.

As for `O=C(O)c1cc([N+](=O)[O-])ccc1Nc1ccc(CCc2ccc(-c3ccccc3)cc2)cc1` [Example 62, 2-[4-(2-Biphenyl-4-yl-ethyl)phenylamino]-5-nitro-benzoic acid], the melting point was 239 to 244 °C. Also, the IC50 at Aβ(1-40) [1] stood at 1.5 µM. Further, the IC50 at Aβ(1-40) [2] was over 100 µM. At Aβ (1-42), this compound had an IC50 of 8.98 µM.

`O=C(O)c1cc(F)ccc1Nc1ccc(CCc2ccc(Cl)c(Cl)c2)cc1` [Example 71, 2-{4-[2-(3,4-Dichloro-phenyl)-ethyl]-phenylamino}-5-fluoro-benzoic acid] gave a melting point of 180 to 182 °C. Also, at Aβ(1-40) [1], the half-inhibitory concentration (IC50) was 3 µM. Besides, the 50% inhibitory concentration (IC50) at Aβ(1-40) [2] is over 100 µM. For the same compound, on Aβ (1-40) peptide, the half-inhibitory concentration (IC50) is over 60 µM.

As for `O=C(O)c1cc([N+](=O)[O-])ccc1Nc1ccc(CCc2ccc(Cl)cc2Cl)cc1` [Example 77, 2-{4-[2-(2,4-Dichloro-phenyl)-ethyl]-phenylamino}-5-nitro-benzoic acid], the melting point is 200.5 to 202.5 °C. The half-maximal inhibitory concentration (IC50) at Aβ(1-40) [2] was 18 µM and 15 µM. Besides, the IC50 against Aβ (1-40) peptide was over 60 µM. The compound further returned an IC50 against Aβ (1-42) of 9.49 µM.

Compound `CCCCN(CCCC)c1ccc(CCc2ccc(Nc3ccc([N+](=O)[O-])cc3C(=O)O)cc2)cc1` [Example 79, 2-{4-[2-(4-Dibutylamino-phenyl)-ethyl]-phenylamino}-5-nitro-benzoic acid] showed a melting point of over 260 °C. Also, the IC50 at Aβ(1-40) [1] is 1 µM and 300 nM (3×). This compound registered an IC50 against Aβ (1-40) peptide of 51 µM. The half-maximal inhibitory concentration (IC50) against Aβ (1-42) was 9.14 µM.

`COc1ccc(CCc2ccc(Nc3ccccc3C(=O)O)cc2)cc1OC` [Example 116, 2-{4-[2-(3,4-Dimethoxy-phenyl)-ethyl]-phenylamino}-benzoic acid] registered a melting point of 159 to 161 °C. Also, the IC50 on Aβ(1-40) [1] was 18 µM and 30 µM. For the same compound, the IC50 on Aβ(1-40) [2] was over 100 µM. This compound also came in with a half-inhibitory concentration (IC50) against Aβ (1-40) peptide of 96 µM.

`COc1ccc(Nc2ccc(CCCCc3ccc(Cl)c(Cl)c3)cc2)c(C(=O)O)c1` [Example 121, 2-{4-[4-(3,4-Dichloro-phenyl)-butyl]-phenylamino}-5-methoxy-benzoic acid] had a melting point of 155 to 158 °C. Besides, the 50% inhibitory concentration (IC50) at Aβ(1-40) [1] is 1 µM. At Aβ(1-40) [2], the half-maximal inhibitory concentration (IC50) was over 100 µM.

For `O=C(O)c1ccccc1Nc1cccc(CCc2ccc(Cl)cc2)c1` [Example 123, 2-{3-[2-(4-Chloro-phenyl)-ethyl]-phenylamino}-benzoic acid], the melting point is 155 to 157 °C. Besides, the half-maximal inhibitory concentration (IC50) against Aβ (1-40) peptide is over 60 µM. Moreover, the IC50 against Aβ (1-42) was 70.8 µM and 85.2 µM.

`Cc1ccc(CCc2cccc(Nc3ccccc3C(=O)O)c2)cc1C` [Example 124, 2-{3-[2-(3,4-Dimethyl-phenyl)-ethyl]-phenylamino}-benzoic acid] yielded a melting point of 182 to 184 °C. Besides, the 50% inhibitory concentration (IC50) at Aβ(1-40) [1] was found to be 10 µM. In addition, the IC50 at Aβ(1-40) [2] is over 100 µM. The half-maximal inhibitory concentration (IC50) against Aβ (1-42) amounted to 62.7 µM.

`O=C(O)c1ccccc1Nc1ccc(CCc2cccc(Cl)c2)cc1` [Example 128, 2-{4-[2-(3-Chloro-phenyl)-ethyl]-phenylamino}-benzoic acid]: the melting point was in the range of 152 to 154 °C. Further, at Aβ (1-40) peptide, the IC50 is over 60 µM. In addition, the IC50 on Aβ (1-42) was 75 µM and > 60 µM.

With `O=C(O)c1ccccc1Nc1ccc(CCc2ccc(Cl)cc2Cl)cc1` [Example 130, 2-{4-[2-(2,4-Dichloro-phenyl)-ethyl]-phenylamino}-benzoic acid], the melting point lay in the range of 181 to 183 °C. Also, on Aβ(1-40) [2], the IC50 is over 100 µM. Moreover, at Aβ (1-40) peptide, the half-inhibitory concentration (IC50) came out at 238 µM. At Aβ (1-42), this compound had an IC50 of 47.5 µM.

With `O=C(O)c1ccc(Nc2ccc(CCc3ccc(Cl)c(Cl)c3)cc2)cc1` [Example 132, 4-{4-[2-(3,4-Dichloro-phenyl)-ethyl]-phenylamino}-benzoic acid], the melting point fell in the range of 214 to 215 °C. Further, at Aβ(1-40) [1], the half-inhibitory concentration (IC50) is 10 µM. Further, the half-inhibitory concentration (IC50) at Aβ(1-40) [2] was over 100 µM. On Aβ (1-42), this compound displayed a concentration for half-maximal inhibition (IC50) of over 100 µM.

Compound `O=C(O)c1ccccc1Nc1ccc(-c2cc(Cl)cc(Cl)c2)cc1` [Example 137, 2-(3′,5′-Dichloro-biphenyl-4-ylamino)-benzoic acid] displayed a melting point of over 220 °C. Further, the IC50 on Aβ(1-40) [1] amounted to 3 µM. Besides, the half-inhibitory concentration (IC50) on Aβ(1-40) [2] was over 100 µM. Besides, at Aβ (1-40) peptide, the concentration for half-maximal inhibition (IC50) turned out to be 52 µM.

In turn, `CCN(CC)c1ccc(Nc2ccc(CCc3ccc(Cl)c(Cl)c3)cc2)c(C(=O)O)c1` [Example 151, 2-{4-[2-(3,4-Dichloro-phenyl)-ethyl]-phenylamino}-5-diethylamino-benzoic acid] came in with a melting point of 106 to 110 °C. Also, the half-maximal inhibitory concentration (IC50) on Aβ(1-40) [2] was over 100 µM. 108 µM corresponded to half-maximal inhibition against Aβ (1-40) peptide (IC50). The IC50 at Aβ (1-42) was over 100 µM.

Values taken from patent US6972287B1, “Method of inhibiting amyloid protein aggregation and imaging amyloid deposits” (Pfizer Inc., priority 1999, dated 2005).
